According to patent US20110171136A1, “OPTICAL IMAGING PROBES” (priority 2002, published 2011):

Tested on: A431 cells
Assay: in vitro uptake competition experiments with glucose
Format: cell-based, human
Conditions: 1 mM (monovalent) or 0.7 mM (bivalent) probe, 30 minutes, 50 and 100 mM glucose respectively, FIGS. 3B and 3D
Description: The A431 cell line was obtained from the American Type Culture Collection and grown in DMEM with 4.5 g/l glucose, supplemented with 10% fetal bovine serum (Life Technologies, NY) and cultured in a humidified atmosphere containing 5% CO2 and 95% air at 37° C.
Utilizing the monovalent and bivalent Cy5.5-conjugated glucose probes, in vitro uptake competition experiments were performed by incubating A431 cells with 1 mM (monovalent) or 0.7 mM (bivalent) of each probe, for 30 minutes, in the presence of 50 and 100 mM glucose, respectively. After removal of the medium, cells were rinsed with ice-cold PBS and visualized under confocal microscopy. […] Under the same conditions, free Cy5.5 uptake by A431 cells was not inhibited by incubation with glucose.

`CCN1\C(=C/C=C/C=C/C2=[N+](CCCCCC(=O)O)c3ccc4c(S(=O)(=O)O)cc(S(=O)(=O)O)cc4c3C2(C)C)C(C)(C)c2c1ccc1c(S(=O)(=O)[O-])cc(S(=O)(=O)O)cc21` [free Cy5.5] was tested, and the “inhibition of cellular uptake of probe by glucose” value was “not inhibited”.
